Laboratory results as given in ChEMBL document CHEMBL3758090, “Investigation of α-conotoxin unbinding using umbrella sampling” (Bioorg Med Chem Lett, 2016).

Target: T1, Soluble acetylcholine receptor (Aplysia californica, UniProt Q8WSF8)
T1 sequence (Q8WSF8 whole entry): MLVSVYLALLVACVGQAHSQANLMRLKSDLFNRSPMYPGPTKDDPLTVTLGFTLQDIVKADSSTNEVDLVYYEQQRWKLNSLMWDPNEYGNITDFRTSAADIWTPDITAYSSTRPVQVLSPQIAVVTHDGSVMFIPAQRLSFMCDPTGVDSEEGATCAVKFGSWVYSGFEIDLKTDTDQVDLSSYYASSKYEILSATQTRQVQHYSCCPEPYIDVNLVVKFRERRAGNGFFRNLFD
Experiment: Displacement [125I]alpha-bungarotoxin from untagged Aplysia californica AChBP expressed in Sf9 cells by competitive binding assay

C[C@@H]1NC(=O)[C@@H]2CSSC[C@H](NC(=O)CN)C(=O)N[C@@H](CSSC[C@@H](C(=O)O)NC(=O)[C@H](CCCNC(=N)N)NC(=O)[C@H](Cc3c[nH]c4ccccc34)NC1=O)C(=O)N[C@@H](CO)C(=O)N[C@@H](CC(=O)O)C(=O)N1CCC[C@H]1C(=O)N[C@@H](CCCNC(=N)N)C(=O)N2
IC50: 33 nM
